Results published in patent US12318452B2, “Degraders of WEE1 kinase” (DANA-FARBER CANCER INSTITUTE, INC., priority 2018, dated 2025).

Tests used:
[1] = biological target: kinome (Wee1, PLK1); assay: KINOMEscan profiling; type: binding; conditions: 1 μM
[2] = test system: Ikaros (IKZF1), Aiolos (IKZF3); assay: IKZF1 and IKZF3 degradation by immunoblot in MOLT4 cells; type: cell-based
Description: Whole cell lysates for immunoblotting were prepared by pelleting cells from each cell line at 4° C. (300 g) for 5 minutes. The resulting cell pellets were washed 1× with ice-cold PBS and then resuspended in RIPA lysis buffer (Sigma, cat #R0278) supplemented with protease and phosphatase inhibitor tablets (Roche cat #4906845001). Lysates were clarified at 14,000 rpm for 15 minutes at 4° C. prior to quantification by BCA assay (Pierce™, cat #23225). Whole cell lysates were loaded into Bolt 4-12% Bis-Tris Gels (Thermo Fisher, cat #NW04120BOX) and separated by electrophoreses at 95 V for 1.5 hours. The gels were transferred to a nitrocellulose membrane using the iBlot® Gel Transfer at P3 for 7 minutes (Thermo Fisher, cat #IB23001) and then blocked for 1 hour at room temperature in Odyssey® blocking buffer (LICOR® Biosciences, cat #927-50010). Membranes were probed using antibodies against the relevant proteins at 4° C. overnight in 20% Odyssey® Blocking Buffer in 1×TBST. Membranes were then washed three times with 1×TBST (at least 5 minutes per wash) followed by incubation with the IRDye® goat anti-mouse (LICOR®, cat #926-32210) or goat anti-rabbit (LICOR®, cat #926-32211) secondary antibody (diluted 1:10,000) in 20% Odyssey® Blocking Buffer in 1×TBST for 1 hour at room temperature. […]

[3] = test system: MOLT4 proteome; assay: Multiplexed quantitative mass spectrometry-based proteomics in MOLT4 cells; type: cell-based, human; conditions: 100 nM
Description: MOLT4 cells were treated with DMSO or 100 nM of compound 13 for 2 or 4 hours in biological triplicates and lenalidomide in biological duplicates for 4 hours and cells were harvested by centrifugation. Lysis buffer (8 M Urea, 50 mM NaCl, 50 mM 4-(2hydroxyethyl)-1-piperazineethanesulfonic acid (EPPS) pH 8.5, Protease and Phosphatase inhibitors from Roche) was added to the cell pellets and homogenized by 20 passes through a 21 gauge (1.25 in. long) needle to achieve a cell lysate with a protein concentration between 1-4 mg mL^−1. A micro-BCA assay (Pierce™) was used to determine the final protein concentration of protein in the cell lysate. 200 μg of protein for each sample were reduced and alkylated as previously described in Donovan et al., Elife 7:e38430 (2018).
Proteins were precipitated using methanol/chloroform. In brief, four volumes of methanol were added to the cell lysate, followed by one volume of chloroform, and finally three volumes of water. The mixture was vortexed and centrifuged to separate the chloroform phase from the aqueous phase. The precipitated protein was washed with three volumes of methanol, centrifuged and the resulting washed precipitated protein was allowed to air dry. Precipitated protein was resuspended in 4 M Urea, 50 mM HEPES pH 7.4, followed by dilution to 1 M urea with the addition of 200 mM EPPS, pH 8. Proteins were first digested with LysC (1:50; enzyme: protein) for 12 hours at room temperature. The LysC digestion was diluted down to 0.5 M Urea with 200 mM EPPS pH 8 and then digested with trypsin (1:50; enzyme:protein) for 6 hours at 37° C. Tandem mass tag (TMT) reagents (Thermo Fisher Scientific) were dissolved in anhydrous acetonitrile (ACN) according to manufacturer instructions. […] The sample channels were combined at a 1:1:1:1:1:1:1:1:1:1:1 ratio, desalted using C18 solid phase extraction cartridges (Waters®) and analyzed by LC-MS for channel ratio comparison. Samples were then combined using the adjusted volumes determined in the channel ratio analysis and dried down in a speed vacuum. […]

C=CCn1c(=O)c2cnc(Nc3ccc(N4CCN(CCCNc5cccc6c5C(=O)N(C5CCC(=O)NC5=O)C6=O)CC4)cc3)nc2n1-c1cccc(C(C)(C)O)n1 (stereo not drawn) [Compound 13, 4-((3-(4-(4-((2-allyl-1-(6-(2-hydroxypropan-2-yl)pyridin-2-yl)-3-oxo-2,3-dihydro-1H-pyrazolo[3,4-d]pyrimidin-6-yl)amino)phenyl)piperazin-1-yl)propyl)amino)-2-(2,6-dioxopiperidin-3-yl)isoindoline-1,3-dione]
Kinase engagement in KINOMEscan [1]: strong engagement of both Wee1 and PLK1
IKZF1 / IKZF3 degradation after 24 hrs ([2]; 24 hrs of drug exposure): degradation of both IKZF1 and IKZF3 was apparent
IKZF1 / IKZF3 degradation at short time points ([2]; short time points (5-hour)): no degradation of either IKZF1 or IKZF3
ZFP91 degradation by proteomics [3]: low levels of ZFP91 degradation
PLK1 downregulation by proteomics ([3]; 2 hours): No downregulation of PLK1
Wee1 abundance Log2FC ([3]; 2 hours): −1.97
